Patent US9139557B2, “Carboxamide compounds and their use as calpain inhibitors” (Abbott GmbH & Co. KG, priority 2006, dated 2015)

Columns and labels:
Assay type in all cases: biochemical
cathepsin L = molecular target: T1, cathepsin L (Homo sapiens, UniProt P07711); assay: Cathepsin L enzyme inhibition in vitro (kinetic fluorescence assay); settings: Ki(cathepsin L)/Ki(calpain) ratio
T1 construct: cathepsin L—isolated from human liver; purchased Calbiochem 219402; host or cells: human liver (tissue isolate)
Procedure, shortened: (§1)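 Kinetic fluorescence (ex 390/em 460 nm), RT. Calpain-I: 20 nM erythrocyte-derived, 100 μM Suc-Leu-Tyr-AMC, imidazole/CaCl2, pH 7.3. Cathepsins, pH 6.0 MES/EDTA/cysteine: B 0.25 nM liver, 100 μM Z-Phe-Arg-AMC; L 1 nM liver, 2 μM Z-Phe-Arg-AMC; S 0.5 nM recombinant, 20 μM Z-Val-Val-Arg-AMC. Cheng-Prusoff Ki, mean of 2–4 curves.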

cathepsin S = molecular target: T2, cathepsin S (Homo sapiens, UniProt P25774); assay: Cathepsin S enzyme inhibition in vitro (kinetic fluorescence assay); settings: Ki(cathepsin S)/Ki(calpain) ratio
T2 construct: purchased Calbiochem 219343; host or cells: E. coli
Procedure, shortened: as §1

cathepsin B = molecular target: T3, cathepsin B (Homo sapiens, UniProt P07858); assay: Cathepsin B enzyme inhibition in vitro (kinetic fluorescence assay); settings: Ki(cathepsin B)/Ki(calpain) ratio
T3 construct: cathepsin B—isolated from human liver; purchased Calbiochem 219362; host or cells: human liver (tissue isolate)
Procedure, shortened: as §1

cathepsin K = molecular target: T4, cathepsin K (Homo sapiens, UniProt P43235); assay: Cathepsin K enzyme inhibition in vitro (kinetic fluorescence assay); settings: Ki(cathepsin K)/Ki(calpain) ratio
T4 construct: purchased Calbiochem 342001; host or cells: E. coli
T4 sequence (P43235 115-329): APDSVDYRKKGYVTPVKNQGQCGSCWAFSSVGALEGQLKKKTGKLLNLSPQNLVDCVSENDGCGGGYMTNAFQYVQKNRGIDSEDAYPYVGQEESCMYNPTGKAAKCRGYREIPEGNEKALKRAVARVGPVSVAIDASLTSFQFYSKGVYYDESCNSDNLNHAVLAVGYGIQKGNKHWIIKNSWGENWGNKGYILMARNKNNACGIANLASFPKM

T1 sequence (P07711 114-333): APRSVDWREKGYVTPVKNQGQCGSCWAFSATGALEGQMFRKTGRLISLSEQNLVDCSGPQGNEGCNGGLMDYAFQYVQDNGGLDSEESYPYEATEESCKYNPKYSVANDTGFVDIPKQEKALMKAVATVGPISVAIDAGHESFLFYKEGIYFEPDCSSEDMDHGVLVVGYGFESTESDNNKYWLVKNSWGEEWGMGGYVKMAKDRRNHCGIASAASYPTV
T2 sequence (P25774 115-331): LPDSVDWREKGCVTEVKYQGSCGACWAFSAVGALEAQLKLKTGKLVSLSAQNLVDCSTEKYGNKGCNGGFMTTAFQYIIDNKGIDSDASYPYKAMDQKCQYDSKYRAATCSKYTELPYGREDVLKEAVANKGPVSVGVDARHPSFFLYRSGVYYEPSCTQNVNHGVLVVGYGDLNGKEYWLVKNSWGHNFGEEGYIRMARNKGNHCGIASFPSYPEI

For `NC(=O)C(=O)C(Cc1ccccc1)NC(=O)c1cccnc1-n1ccc(-c2ccc(N3CCCC3)cc2)n1` (stereo not drawn) [Example 69, N-(3-Amino-1-benzyl-2,3-dioxopropyl)-2-[3-(4-pyrrolidin-1-ylphenyl)-1H-pyrazol-1-yl]nicotinamide], the “Sel cat. L” value (cathepsin L) was “++ (++ means a Ki(cathepsin L)/Ki(calpain) ratio of ≧50)”, the “Sel cat. S” value (cathepsin S) was “++ (++ means a Ki(cathepsin S)/Ki(calpain) ratio of ≧100)” and the “Sel cat. B” value (cathepsin B) was “+ (+ means 10≦Ki(cathepsin B)/Ki(calpain)<30)”. For the same compound, the “Sel cat. K” value (cathepsin K) was “+ (+ means 10≦Ki(cathepsin K)/Ki(calpain)<30)”.
`NC(=O)C(=O)C(Cc1ccccc1)NC(=O)c1cccnc1-n1ccc(-c2cccc(C(F)(F)F)c2Cl)n1` (stereo not drawn) [Example 155, N-[3-Amino-2,3-dioxo-1-(phenylmethyl)propyl]-2-{3-[2-chloro-3-(trifluoromethyl)phenyl]-1H-pyrazol-1-yl}pyridine-3-carboxamide] was tested, and the “Sel cat. L” value (cathepsin L) was “++ (++ means a Ki(cathepsin L)/Ki(calpain) ratio of ≧50)”, the “Sel cat. S” value (cathepsin S) was “++ (++ means a Ki(cathepsin S)/Ki(calpain) ratio of ≧100)” and the “Sel cat. B” value (cathepsin B) was “++ (++ means a Ki(cathepsin B)/Ki(calpain) ratio of ≧30)”. For the same compound, the “Sel cat. K” value (cathepsin K) was “++ (++ means a Ki(cathepsin K)/Ki(calpain) ratio of ≧30)”.
For `COc1ccc(CC(NC(=O)c2cccnc2-n2ccc(-c3cccc(Cl)c3Cl)n2)C(=O)C(N)=O)cc1` (stereo not drawn) [Example 153, N-(3-Amino-1-{[4-(methyloxy)phenyl]methyl}-2,3-dioxopropyl)-2-[3-(2,3-dichlorophenyl)-1H-pyrazol-1-yl]pyridine-3-carboxamide], the “Sel cat. L” value (cathepsin L) was “++ (++ means a Ki(cathepsin L)/Ki(calpain) ratio of ≧50)”, the “Sel cat. S” value (cathepsin S) was “++ (++ means a Ki(cathepsin S)/Ki(calpain) ratio of ≧100)” and the “Sel cat. B” value (cathepsin B) was “++ (++ means a Ki(cathepsin B)/Ki(calpain) ratio of ≧30)”. The “Sel cat. K” value (cathepsin K) was “++ (++ means a Ki(cathepsin K)/Ki(calpain) ratio of ≧30)”.
In the case of `NC(=O)C(=O)C(Cc1ccc(F)cc1)NC(=O)c1cccnc1-n1ccc(-c2ccccc2OC(F)(F)F)n1` (stereo not drawn) [Example 152, N-{3-Amino-1-[(4-fluorophenyl)methyl]-2,3-dioxopropyl}-2-(3-{2-[(trifluoromethyl)oxy]phenyl}-1H-pyrazol-1-yl)pyridine-3-carboxamide], the “Sel cat. L” value (cathepsin L) is reported as “++ (++ means a Ki(cathepsin L)/Ki(calpain) ratio of ≧50)”, the “Sel cat. S” value (cathepsin S) is reported as “++ (++ means a Ki(cathepsin S)/Ki(calpain) ratio of ≧100)” and the “Sel cat. B” value (cathepsin B) is reported as “++ (++ means a Ki(cathepsin B)/Ki(calpain) ratio of ≧30)”. For the same compound, the “Sel cat. K” value (cathepsin K) was “++ (++ means a Ki(cathepsin K)/Ki(calpain) ratio of ≧30)”.
In the case of `NC(=O)C(=O)C(Cc1ccccc1)NC(=O)c1cccnc1-n1ccc(-c2ccc(F)cc2F)n1` (stereo not drawn) [Example 94, N-[3-Amino-2,3-dioxo-1-(phenylmethyl)propyl]-2-[3-(2,4-difluorophenyl)-1H-pyrazol-1-yl]pyridine-3-carboxamide], the “Sel cat. L” value (cathepsin L) is reported as “++ (++ means a Ki(cathepsin L)/Ki(calpain) ratio of ≧50)”, the “Sel cat. S” value (cathepsin S) is reported as “++ (++ means a Ki(cathepsin S)/Ki(calpain) ratio of ≧100)” and the “Sel cat. B” value (cathepsin B) is reported as “++ (++ means a Ki(cathepsin B)/Ki(calpain) ratio of ≧30)”. The “Sel cat. K” value (cathepsin K) was “+ (+ means 10≦Ki(cathepsin K)/Ki(calpain)<30)”.
`NC(=O)C(=O)C(Cc1ccc(OC(F)(F)F)cc1)NC(=O)c1cccnc1-n1ccc(-c2cccc(C(F)(F)F)c2)n1` (stereo not drawn) [Example 134, N-[3-Amino-2,3-dioxo-1-({4-[(trifluoromethyl)oxy]phenyl}methyl)propyl]-2-{3-[3-(trifluoromethyl)phenyl]-1H-pyrazol-1-yl}pyridine-3-carboxamide] was tested, and the “Sel cat. L” value (cathepsin L) was “+ (+ means 30≦Ki(cathepsin L)/Ki(calpain)<50)”, the “Sel cat. S” value (cathepsin S) was “+ (+ means 50≦Ki(cathepsin S)/Ki(calpain)<100)” and the “Sel cat. B” value (cathepsin B) was “++ (++ means a Ki(cathepsin B)/Ki(calpain) ratio of ≧30)”. The “Sel cat. K” value (cathepsin K) was “++ (++ means a Ki(cathepsin K)/Ki(calpain) ratio of ≧30)”.
For `NC(=O)C(=O)C(Cc1ccccc1)NC(=O)c1cccnc1-n1ccc(-c2c(F)cccc2F)n1` (stereo not drawn) [Example 85, N-[3-Amino-2,3-dioxo-1-(phenylmethyl)propyl]-2-[3-(2,6-difluorophenyl)-1H-pyrazol-1-yl]pyridine-3-carboxamide], the “Sel cat. L” value (cathepsin L) was “++ (++ means a Ki(cathepsin L)/Ki(calpain) ratio of ≧50)”, the “Sel cat. S” value (cathepsin S) was “++ (++ means a Ki(cathepsin S)/Ki(calpain) ratio of ≧100)” and the “Sel cat. B” value (cathepsin B) was “+ (+ means 10≦Ki(cathepsin B)/Ki(calpain)<30)”. The “Sel cat. K” value (cathepsin K) was “++ (++ means a Ki(cathepsin K)/Ki(calpain) ratio of ≧30)”.
`COc1cc(Cl)ccc1-c1ccn(-c2ncccc2C(=O)NC(Cc2ccccc2)C(=O)C(N)=O)n1` (stereo not drawn) [Example 139, N-[3-Amino-2,3-dioxo-1-(phenylmethyl)propyl]-2-{3-[4-chloro-2-(methyloxy)phenyl]-1H-pyrazol-1-yl}pyridine-3-carboxamide] was tested, and the “Sel cat. L” value (cathepsin L) was “++ (++ means a Ki(cathepsin L)/Ki(calpain) ratio of ≧50)”, the “Sel cat. S” value (cathepsin S) was “++ (++ means a Ki(cathepsin S)/Ki(calpain) ratio of ≧100)” and the “Sel cat. B” value (cathepsin B) was “+ (+ means 10≦Ki(cathepsin B)/Ki(calpain)<30)”. The “Sel cat. K” value (cathepsin K) was “++ (++ means a Ki(cathepsin K)/Ki(calpain) ratio of ≧30)”.
`NC(=O)C(=O)C(Cc1ccccc1)NC(=O)c1cccnc1-n1ccc(-c2ccc(Cl)s2)n1` (stereo not drawn) [Example 103, N-[3-Amino-2,3-dioxo-1-(phenylmethyl)propyl]-2-[3-(5-chloro-2-thienyl)-1H-pyrazol-1-yl]pyridine-3-carboxamide] was tested, and the “Sel cat. L” value (cathepsin L) was “++ (++ means a Ki(cathepsin L)/Ki(calpain) ratio of ≧50)”, the “Sel cat. S” value (cathepsin S) was “++ (++ means a Ki(cathepsin S)/Ki(calpain) ratio of ≧100)” and the “Sel cat. B” value (cathepsin B) was “+ (+ means 10≦Ki(cathepsin B)/Ki(calpain)<30)”. For the same compound, the “Sel cat. K” value (cathepsin K) was “+ (+ means 10≦Ki(cathepsin K)/Ki(calpain)<30)”.
In the case of `COc1ccccc1-c1ccn(-c2ncccc2C(=O)NC(Cc2ccccc2)C(=O)C(N)=O)n1` (stereo not drawn) [Example 90, N-[3-Amino-2,3-dioxo-1-(phenylmethyl)propyl]-2-{3-[2-(methyloxy)phenyl]-1H-pyrazol-1-yl}pyridine-3-carboxamide], the “Sel cat. L” value (cathepsin L) is reported as “++ (++ means a Ki(cathepsin L)/Ki(calpain) ratio of ≧50)”, the “Sel cat. S” value (cathepsin S) is reported as “++ (++ means a Ki(cathepsin S)/Ki(calpain) ratio of ≧100)” and the “Sel cat. B” value (cathepsin B) is reported as “++ (++ means a Ki(cathepsin B)/Ki(calpain) ratio of ≧30)”. For the same compound, the “Sel cat. K” value (cathepsin K) was “+ (+ means 10≦Ki(cathepsin K)/Ki(calpain)<30)”.
`NC(=O)C(=O)C(Cc1ccccc1)NC(=O)c1cccnc1-n1ccc(-c2ccc(Cl)cc2Cl)n1` (stereo not drawn) [Example 79, N-(3-Amino-1-benzyl-2,3-dioxopropyl)-2-[3-(2,4-dichlorophenyl)-1H-pyrazol-1-yl]nicotinamide] was tested, and the “Sel cat. L” value (cathepsin L) was “++ (++ means a Ki(cathepsin L)/Ki(calpain) ratio of ≧50)”, the “Sel cat. S” value (cathepsin S) was “++ (++ means a Ki(cathepsin S)/Ki(calpain) ratio of ≧100)” and the “Sel cat. B” value (cathepsin B) was “++ (++ means a Ki(cathepsin B)/Ki(calpain) ratio of ≧30)”. The “Sel cat. K” value (cathepsin K) was “++ (++ means a Ki(cathepsin K)/Ki(calpain) ratio of ≧30)”.
With `COc1ccc(CC(NC(=O)c2cccnc2-n2ccc(-c3ccccc3F)n2)C(=O)C(N)=O)cc1` (stereo not drawn) [Example 92, N-(3-Amino-1-{[4-(methyloxy)phenyl]methyl}-2,3-dioxopropyl)-2-[3-(2-fluorophenyl)-1H-pyrazol-1-yl]pyridine-3-carboxamide] the “Sel cat. L” value (cathepsin L) was “++ (++ means a Ki(cathepsin L)/Ki(calpain) ratio of ≧50)”, the “Sel cat. S” value (cathepsin S) was “++ (++ means a Ki(cathepsin S)/Ki(calpain) ratio of ≧100)” and the “Sel cat. B” value (cathepsin B) was “++ (++ means a Ki(cathepsin B)/Ki(calpain) ratio of ≧30)”. For the same compound, the “Sel cat. K” value (cathepsin K) was “+ (+ means 10≦Ki(cathepsin K)/Ki(calpain)<30)”.
